Assay results reported in US6287813A, “Antibiotic-based gene regulation system” (Cistronics Cell Technology GmbH, priority 1999, dated 2001).

Assays:
[1] = biological target: T1, PIT3/PPIR ON (Streptomyces coelicolor, UniProt Q9ADN3); assay: PipON SEAP assay, CHO-K1 cotransfected with pMF208 (PPIR ON-SEAP) and pMF207 (PIT3; Pip-KRAB); format: cell-based
T1 construct: pMF207 with pMF208 in CHO-K1
T1 sequence (Q9ADN3 1-252): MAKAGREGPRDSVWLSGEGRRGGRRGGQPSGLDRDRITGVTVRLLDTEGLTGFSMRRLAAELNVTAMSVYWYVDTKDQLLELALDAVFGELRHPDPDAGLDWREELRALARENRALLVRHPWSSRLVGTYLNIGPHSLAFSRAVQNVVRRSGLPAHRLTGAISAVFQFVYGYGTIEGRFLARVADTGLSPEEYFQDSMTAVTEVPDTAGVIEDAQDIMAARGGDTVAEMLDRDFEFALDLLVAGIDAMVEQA
Description: The Classical PIT/PPIR system belongs to the "OFF" family of regulation concepts since gene expression is activated upon withdrawal of the regulating antibiotic. However, in some applications such as gene therapy and tissue engineering an "ON" system which is induced upon addition of streptogramin antibiotics is more desirable. We therefore constructed a new Pip-based binary PION system which consists of a PPIR ON promoter and a set of two different transrepressors. PPIR ON consists of a PIR3 module containing 3 consecutive Pip binding elements (SEQ ID NO:21; Example 3) placed in front of the strong viral SV40 promoter. Transrepressors such as PIT3, which consists of a protein fusion between Pip and the KRAB silencing domain of the human kox-1 gene (Deuschle et al., 1995, Mol. Cell Biol. 15: 1907-1914) and PIT4, which is simply Pip expressed in a eukaryotic configuration, bind to PIR3 in front of PSV40 and block transcription of this promoter. Besides sterical transcription blocking the silencing domain of PIT3 can additionally downregulate PSV40 activity. […]
Table 9: Comparison of the regulation characteristics of the PipON systems. CHO-K1 cells were simultaneously cotransfected with the plasmids indicated and the SEAP readout (slope a of the p-nitrophenolphosphate-based light absorbance time courses) was determined in the presence and absence of pristinamycin 48 hr post transfection. […]

[2] = biological target: T2, PIT/PPIR system (Streptomyces coelicolor, UniProt Q9ADN3); assay: Positive feedback vector pMF170 (PPIR-GFP-IRES-PIT-pA), GFP fluorescence microscopy; format: cell-based; settings: pMF170 in CHO-K1, BHK-21 or HeLa cells
T2 construct: pMF156/pTWIN in CHO cells, PPIR-SEAP or GFP reporter
T2 sequence (Q9ADN3 1-252): T1 sequence (Q9ADN3 1-252)
Description: These positive feedback regulation vectors that were constructed contain both the green fluorescent protein GFP and PIT in a dicistronic, PPIR -driven configuration.
For construction of the autoregulatory system, PIT was excised from pMF156 by EcoRI/HindIII and cloned into the polylinker of the eukaryotic expression vector pSBC-2 (EcoRI/HindIII). As a pSBC-2 derivative, the resulting plasmid pMF169 is compatible to the pSBC-1 derivative pMF164 (PPIR -GFP) and allows fusion of both expression units via their SspI/NotI restriction sites, thereby generating pMF170. pMF170 contains a dicistronic PPIR -regulated expression unit encoding GFP in the first and PIT in the second cistron. Cap-independent translation initiation of the second cistron is enabled by a picornaviral internal ribosomal entry site (IRES) encoded upstream of PIT.

[3] = tested on: CHO cells; assay: CHO cell morphology, growth and toxicity; format: cell-based, Chinese hamster
Description: However, pristinamycin has no influence on expression levels of PSV40 or PCMV -driven SEAP expression constructs (data not shown). […] Similar PI-dependent gene expression using the PIT/PPIR system has also been observed in BHK-21 and HeLa cells (not shown). […] This is the same order of magnitude as tissue concentrations reached in antibiotic therapy. Only much higher PI concentrations (above 50 μg/ml) were toxic for CHO cells.

pristinamycin I [PI]
SEAP readout (slope of the p-nitrophenolphosphate-based light absorbance time courses) ([1]; +PI (2 μg/ml) column, CHO + pMF208 + pMF207, 48 hr post transfection): 0.00055 ± 0.0003 | Induction factor ([1]; PIT3-PPIR ON configuration, 2880 min): about 150 | GFP-expression in the presence of PI [2]: completely repressed | Effects on CHO cell morphology and growth ([3]; PI 2 μg/ml): No deleterious effects | PI concentration toxic for CHO cells ([3]; hamster, cho cells): above 50 μg/ml
